Data: patent US9604931B2, “Nuclear receptor binding agents” (GTx, Inc., priority 2007, dated 2017)
Entries after “also recorded” stand apart in the source; their conditions may differ.

Experiments:
[1] = target: ER-β (Rattus norvegicus (Rat), UniProt Q62986); assay: Transient transactivation assay in HEK-293 cells, ER-β and ERE-LUC; format: cell-based; conditions: for Function on ER-β in transactivation: HEK-293 cells
Protocol: Human estrogen receptors (ER-α and ER-β) were cloned from prostate cDNA into a pCR3.1 plasmid vector backbone. PGC-1 was cloned into mammalian two hybrid vector pACT. ER-β H475 was mutated to alanine using site-directed mutagenesis. Sequencing was performed to determine the absence of any non specific mutations. […] HEK-293 cells were plated at 100,000 cells per well of a 24 well plate in […] (DMEM)+5% charcoal-stripped fetal bovine serum (csFBS). […] Luciferase assays were performed 48 hrs after transfection.
The cells were treated with varying concentrations of the ligands and their EC50 values were determined.

[2] = target: ER-α ligand binding domain (LBD) (Homo sapiens (Human), UniProt P03372); assay: Ligand binding assay of 14m and 12u, ER-α (Example 22A)
[3] = target: ER-α (Rattus norvegicus (Rat), UniProt P06211); assay: Transient transactivation assay in HEK-293 cells, ER-α and ERE-LUC; format: cell-based
Protocol: Human estrogen receptors (ER-α and ER-β) were cloned from prostate cDNA into a pCR3.1 plasmid vector backbone. PGC-1 was cloned into mammalian two hybrid vector pACT. ER-β H475 was mutated to alanine using site-directed mutagenesis. Sequencing was performed to determine the absence of any non specific mutations. SHP promoter (−572 to +10) (26) was cloned into pGL3 basic LUC reporter vector and human FXR was cloned into pCR3.1. HEK-293 cells were plated at 100,000 cells per well of a 24 well plate in […] (DMEM)+5% charcoal-stripped fetal bovine serum (csFBS). The cells were transfected using Lipofectamine (Invitrogen, Carlsbad, Calif.) with 0.25 μg ERE-LUC, 0.02 μg CMV-LUC (renilla luciferase) and 12.5 ng of rat ER-α or 25 ng rat ER-β. […] Luciferase assays were performed 48 hrs after transfection.
To determine if the selectivity in ER binding also translated into ER-β-selective activity, transient transactivation assays were performed in HEK-293 cells transfected with plasmids encoding ER-α or ER-β and ERE-LUC. The cells were treated with varying concentrations of the ligands and their EC50 values were determined.

[4] = tested on: high fat diet (HFD) induced obesity model; assay: High fat diet induced obesity, prevention studies; format: in vivo, C57BL6 male mice; conditions: for Prevention of the increase in body fat (MRI) / Prevention of body weight increase caused by the high fat diet: Study 2, 30 mg/kg/day s.c.; for Lean mass (MRI): Study 2, high fat diet; for Fat mass (MRI): Study 2, versus high fat diet and vehicle
Protocol: The mice were treated for 12 weeks.

[5] = tested on: Ishikawa endometrial cells; assay: Ishikawa growth assay (ALP); format: cell-based; conditions: for Concentration at which proliferation of Ishikawa cells was induced: highest concentration tested
Protocol: Ishikawa cells were plated at 15,000 cells/well in 24 well plates in DME:F12 (1:1)+5% csFBS w/o phenol red. The cells were maintained in this medium at 37° C. for 3 days. Medium was changed immediately prior to drug treatment for an additional 72 hrs. After 72 hrs, the cells were fixed with formalin and the amount of alkaline phosphatase (ALP) measured by para-nitrophenyl phosphate method.
This effect is one potential concern in the development of ER-α SERMs.

[6] = target: ERβ ligand binding domain (Homo sapiens, UniProt Q92731); assay: Competitive [3H]-estradiol binding assay, ER-β (Example 21)
Protocol: ER binding affinity was determined via one of the following methods:
Briefly, the incubation mixture was filtered through a high affinity protein binding filter, and washed several times to remove any unbound radioactivity. The filter plate was air dried and sealed on the bottom.
Nonspecific binding was subtracted from total binding to yield specific binding.

[7] = tested on: SHP promoter; assay: SHP promoter-luciferase assay in HEK-293 cells; format: cell-based; conditions: transfected with FXR and ER-β
Protocol: FIG. 12 depicts the effect of ER-β ligand on PPAR-γ function through ligand binding domain (LBD). (A). HEK-293 cells were transfected with 0.25 μg PPRE-LUC, 5 ng CMV-renilla LUC and the indicated receptors (PPAR-γ and ER-β for the left panel and PPAR-α and ER-β for the right panel). The cells were treated 24 hrs after transfection with the indicated ligands and harvested 48 hrs after transfection and firefly luciferase activity was measured and normalized to renilla luciferase. (B). H475 in ER-β LBD is important for its function. H475 in ER-β LBD was mutated to alanine (A) using a site directed mutagenesis kit. Transactivation assay was performed as described in panel A in HEK-293 cells with a titration of ER-β ligands in wild type (WT) or ER-β H475A. (C). […] HEK-293 cells were transfected with 0.25 μg PPRE-LUC, 5 ng CMV-renilla LUC and 50 ng of the indicated receptors (PPAR-γ or PPAR-γ and wild type ER-β or PPAR-γ and ER-β H475A). The cells were treated 24 hrs after transfection with the indicated ligands and harvested 48 hrs after transfection and firefly luciferase activity was measured and normalized to renilla luciferase. (D). […] HepG2 cells were transfected with 0.25 μg PPRE-LUC, 5 ng CMV-renilla LUC, 0.5 μg PGC-1 or vector backbone and 100 ng of the indicated receptors (PPAR-γ or PPAR-γ and wild type ER-β or PPAR-γ and ER-β H475A for top panels and PPAR-α or PPAR-α and ER-β for bottom panel). The cells were treated 24 hrs after transfection with the indicated ligands and harvested 48 hrs after transfection and firefly luciferase activity was measured and normalized to renilla luciferase. (E). SHP-1 is an ER-β specific target gene. HEK-293 cells were transfected with 0.25 μg SHP-LUC, 5 ng CMV-renilla LUC and 50 ng of the indicated receptors (FXR and ER-α for the left panel and FXR and ER-β for the right panel). The cells were treated 24 hrs after transfection with the indicated ligands and harvested 48 hrs after transfection and firefly luciferase activity was measured and normalized to renilla luciferase. PPAR—peroxisome proliferator and activated receptor; ER—estrogen receptor; H—histidine; A—alanine; RLU—relative luciferase units; Tro—troglitazone; PGC-1—PPAR-γ coactivator; SHP—small heterodimer partner; FXR—farsenoid X receptor.
Human estrogen receptors (ER-α and ER-β) were cloned from prostate cDNA into a pCR3.1 plasmid vector backbone. PGC-1 was cloned into mammalian two hybrid vector pACT. ER-β H475 was mutated to alanine using site-directed mutagenesis. Sequencing was performed to determine the absence of any non specific mutations. SHP promoter (−572 to +10) (26) was cloned into pGL3 basic LUC reporter vector and human FXR was cloned into pCR3.1. […]

[8] = tested on: receptors for progesterone, mineralocorticoids, androgens, glucocorticoids, FXR, PXR, LXR, RXR, PPAR-α, PPAR-γ and ERR-α, ERR-β and ERR-γ; assay: Transactivation assays for cross reactivity with 13 other NHR; format: cell-based; conditions: concentrations as high as 10 μM; data not shown
[9] = tested on: PPAR-α; assay: PPAR-α transactivation (PPRE-LUC) in HEK-293 cells co-transfected with ER-β; format: cell-based
Protocol: FIG. 12 depicts the effect of ER-β ligand on PPAR-γ function through ligand binding domain (LBD). (A). HEK-293 cells were transfected with 0.25 μg PPRE-LUC, 5 ng CMV-renilla LUC and the indicated receptors (PPAR-γ and ER-β for the left panel and PPAR-α and ER-β for the right panel). The cells were treated 24 hrs after transfection with the indicated ligands and harvested 48 hrs after transfection and firefly luciferase activity was measured and normalized to renilla luciferase. (B). H475 in ER-β LBD is important for its function. H475 in ER-β LBD was mutated to alanine (A) using a site directed mutagenesis kit. Transactivation assay was performed as described in panel A in HEK-293 cells with a titration of ER-β ligands in wild type (WT) or ER-β H475A. (C). […] The cells were treated 24 hrs after transfection with the indicated ligands and harvested 48 hrs after transfection and firefly luciferase activity was measured and normalized to renilla luciferase. […] The cells were treated 24 hrs after transfection with the indicated ligands and harvested 48 hrs after transfection and firefly luciferase activity was measured and normalized to renilla luciferase. […] The cells were treated 24 hrs after transfection with the indicated ligands and harvested 48 hrs after transfection and firefly luciferase activity was measured and normalized to renilla luciferase. […]

[10] = high fat diet, 30 mg/kg/day s.c., 12 weeks
[11] = high fat diet, 30 mg/kg/day s.c.

Sequence of ERβ ligand binding domain (Q92731 whole entry, looked up, the tested form may be a part): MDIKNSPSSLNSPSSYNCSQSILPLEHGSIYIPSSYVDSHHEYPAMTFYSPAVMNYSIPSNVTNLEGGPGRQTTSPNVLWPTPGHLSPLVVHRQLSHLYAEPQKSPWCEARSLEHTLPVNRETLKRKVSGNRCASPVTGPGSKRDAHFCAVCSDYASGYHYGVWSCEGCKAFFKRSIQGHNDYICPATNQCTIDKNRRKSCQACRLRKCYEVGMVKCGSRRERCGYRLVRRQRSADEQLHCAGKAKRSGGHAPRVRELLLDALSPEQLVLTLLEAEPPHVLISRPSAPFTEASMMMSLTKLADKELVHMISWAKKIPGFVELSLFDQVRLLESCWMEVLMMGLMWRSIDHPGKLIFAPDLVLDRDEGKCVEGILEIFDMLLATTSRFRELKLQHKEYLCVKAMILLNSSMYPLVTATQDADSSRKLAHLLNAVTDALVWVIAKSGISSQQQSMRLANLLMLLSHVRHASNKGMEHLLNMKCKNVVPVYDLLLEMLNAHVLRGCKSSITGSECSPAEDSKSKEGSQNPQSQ
Sequence of ER-α ligand binding domain (LBD) (P03372 whole entry, looked up, species assumed, the tested form may be a part): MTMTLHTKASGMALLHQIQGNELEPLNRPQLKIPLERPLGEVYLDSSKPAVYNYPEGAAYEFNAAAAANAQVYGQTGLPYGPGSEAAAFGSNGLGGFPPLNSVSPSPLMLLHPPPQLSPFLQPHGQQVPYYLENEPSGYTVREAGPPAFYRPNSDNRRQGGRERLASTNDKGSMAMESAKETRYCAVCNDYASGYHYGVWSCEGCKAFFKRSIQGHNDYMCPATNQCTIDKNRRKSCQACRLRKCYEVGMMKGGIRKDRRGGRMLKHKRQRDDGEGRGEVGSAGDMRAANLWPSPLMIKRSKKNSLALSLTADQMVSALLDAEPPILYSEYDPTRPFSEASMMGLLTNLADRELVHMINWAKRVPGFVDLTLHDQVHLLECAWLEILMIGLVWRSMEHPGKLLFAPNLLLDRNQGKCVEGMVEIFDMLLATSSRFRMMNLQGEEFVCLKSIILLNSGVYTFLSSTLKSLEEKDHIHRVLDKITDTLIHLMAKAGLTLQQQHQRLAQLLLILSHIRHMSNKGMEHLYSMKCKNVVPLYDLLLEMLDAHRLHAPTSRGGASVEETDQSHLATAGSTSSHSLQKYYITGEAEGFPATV

SMILES | EC50 [1] [µM] | Function on ER-β in transactivation [1] | Ki [2] [µM] | Function on ER-α in transactivation [3] | Prevention of the increase in body fat (MRI) [4] | Prevention of body weight increase caused by the high fat diet ([4]; 12 weeks) | Lean mass (MRI) [4] | Fat mass (MRI) [4] | Body weight versus normal diet controls [4, 10] | Gastrocnemius muscle weight ([4]; high fat diet, 12 weeks) | Serum testosterone levels ([4]; high fat diet, 12 weeks) | Testes weights ([4]; high fat diet, 12 weeks) | White adipose tissue (WAT) weight ([4]; high fat diet, 12 weeks) | Ishikawa cell proliferation [5] | Concentration at which proliferation of Ishikawa cells was induced [5] [µM] | SHP promoter activity [7] | Cross reactivity with 13 other NHR [8] | WY14643 induced PPAR-α transactivation [9] | also measured
O=c1c2c(O)cc(O)cc2c(Br)cn1-c1ccc(O)cc1 [12u, 4-bromo-6,8-dihydroxy-2-(4-hydroxyphenyl)isoquinolin-1(2H)-one] | < 0.01 | agonists | 0.04 | agonists | more than 50% | more than 50% | increased muscle mass; also recorded: increased the lean mass | reduced fat mass; also recorded: significant reduction in fat mass | statistically indistinguishable from the normal diet controls | increased gastrocnemius muscle weight | did not affect the serum testosterone levels; also recorded: not altered | not altered | prevented the increase in the WAT weight; also recorded: decreased WAT weight | weakly induced Ishikawa cell proliferation | 1 | neither of the ligands activated SHP | did not cross react | did not affect | inhibition at 0.1 µM ([6]; read-out: Percent Inhibition of [3H]-Estradiol Binding to ER-β): 96.7%
N#Cc1cn(-c2ccc(O)cc2)c(=O)c2c(O)cc(O)cc12 [14m, 6,8-dihydroxy-2-(4-hydroxyphenyl)-1-oxo-1,2-dihydroisoquinoline-4-carbonitrile] | < 0.01 | agonists | 0.094 | agonists | more than 50% | more than 50% | increased muscle mass; also recorded: increased the lean mass | reduced fat mass; also recorded: significant reduction in fat mass | statistically indistinguishable from control mice; also recorded: statistically indistinguishable from the normal diet controls | increased gastrocnemius muscle weight | did not affect the serum testosterone levels; also recorded: not altered | not altered | prevented the increase in the WAT weight; also recorded: significantly reduced; also recorded: decreased WAT weight | weakly induced Ishikawa cell proliferation | 1 | neither of the ligands activated SHP | did not cross react | did not affect | Accumulation of fat in liver (oil red staining) ([4]; high fat diet): attenuated the accumulation of lipid droplets in the liver; also recorded: completely prevented the accumulation of fat in the liver; Serum cholesterol increase ([4]; high fat diet): significantly reversed; Serum leptin increase ([4]; high fat diet): significantly reversed; Serum macrophage inflammatory protein-1β (MIP-1β) ([4]; high fat diet): undetectable levels; Bone mineral content (BMC, DEXA) [4, 11]: prevented the loss in BMC; Feed consumption / total caloric intake [4, 11]: did not affect total caloric intake; Body fat (DEXA) [4, 10]: suppressing fat mass formation; Reduction in body weight compared to high fat diet and vehicle [4, 10]: greater than 85%; Weight gained more than normal diet-fed controls [4, 10]: 5%; Blood glucose levels in glucose tolerance test ([4]; high fat diet, 150 mg glucose orally): not statistically different from the normal diet controls; Serum follicle stimulating hormone (FSH) levels ([4]; high fat diet, 12 weeks): did not affect serum testosterone and follicle stimulating hormone (FSH) levels; Ki ([6]; read-out: ER-β binding constant (Ki)): 0.007 µM
